# In ChEMBL document CHEMBL5724806, “Unraveling interindividual differences and functional consequences of gut microbial metabolism of immunosuppressants” (2024):
# Tests used:
# Assay type in all cases: ADME
# [1] = The drug is tested on Bacteroides ovatus strain: ATCC 8483 for biotransformation under anaerobic condition. The drug concentrations were measured over 6 timepoints collected between 0 and 12 hours of incubation by liquid-chromatography-coupled mass spectrometry (LC–MS); parameters: dose 5 uM, timepoint 0, 1.5, 3, 6, 9, 12 hours; conditions: 5 µM
# [2] = (§1) The drug is tested on Eubacterium hallii strain: DSM3353 for biotransformation under anaerobic condition. The drug concentrations were measured over 6 timepoints collected between 0 and 12 hours of incubation by liquid-chromatography-coupled mass spectrometry (LC–MS); parameters: dose 5 uM, timepoint 0, 1.5, 3, 6, 9, 12 hours; conditions: anaerobutyricum hallii, 5 µM
# [3] = as §1, with “the gut metagenome community of P-03 with ENA study accession number: PRJEB31790” for “Eubacterium hallii strain: DSM3353”, “microaerobic” for “anaerobic”, “7” for “6”; parameters: dose 5 uM, timepoint 0, 0.75, 1.5, 3, 6, 9, 12 hours; conditions: 5 µM
# [4] = The drug is tested on Eubacterium eligens strain: DSM3376 for biotransformation under anaerobic condition. The drug concentrations were measured over 6 timepoints collected between 0 and 12 hours of incubation by liquid-chromatography-coupled mass spectrometry (LC–MS); parameters: dose 5 uM, timepoint 0, 1.5, 3, 6, 9, 12 hours; conditions: lachnospira eligens, 5 µM
# [5] = (§2) The drug is tested on Alloscardovia omnicolens strain: DSM21503 for biotransformation under microaerobic condition. The drug concentrations were measured over 6 timepoints collected between 0 and 12 hours of incubation by liquid-chromatography-coupled mass spectrometry (LC–MS); parameters: dose 5 uM, timepoint 0, 1.5, 3, 6, 9, 12 hours; conditions: 5 µM
# [6] = as §1, with “the gut metagenome community of A-07 with ENA study accession number: PRJEB31790” for “Eubacterium hallii strain: DSM3353”, “7” for “6”; parameters: dose 5 uM, timepoint 0, 0.75, 1.5, 3, 6, 9, 12 hours; conditions: 5 µM
# [7] = as §2, with “the gut metagenome community of P-01 with ENA study accession number: PRJEB31790” for “Alloscardovia omnicolens strain: DSM21503”, “7” for “6”; parameters: dose 5 uM, timepoint 0, 0.75, 1.5, 3, 6, 9, 12 hours; conditions: 5 µM
# [8] = The drug is tested on Coprococcus comes strain: ATCC27758 for biotransformation under anaerobic condition. The drug concentrations were measured over 6 timepoints collected between 0 and 12 hours of incubation by liquid-chromatography-coupled mass spectrometry (LC–MS); parameters: dose 5 uM, timepoint 0, 1.5, 3, 6, 9, 12 hours; conditions: 5 µM
# [9] = The drug is tested on Streptococcus mitis strain: DSM12643 for biotransformation under microaerobic condition. The drug concentrations were measured over 6 timepoints collected between 0 and 12 hours of incubation by liquid-chromatography-coupled mass spectrometry (LC–MS); parameters: dose 5 uM, timepoint 0, 1.5, 3, 6, 9, 12 hours; conditions: 5 µM
# [10] = as §2, with “the gut metagenome community of A-06 with ENA study accession number: PRJEB31790” for “Alloscardovia omnicolens strain: DSM21503”, “7” for “6”; parameters: dose 5 uM, timepoint 0, 0.75, 1.5, 3, 6, 9, 12 hours; conditions: 5 µM
# [11] = as §2, with “the gut metagenome community of P-04 with ENA study accession number: PRJEB31790” for “Alloscardovia omnicolens strain: DSM21503”, “7” for “6”; parameters: dose 5 uM, timepoint 0, 0.75, 1.5, 3, 6, 9, 12 hours; conditions: 5 µM
# [12] = The drug is tested on Streptococcus salivarius strain: DSM20560 for biotransformation under anaerobic condition. The drug concentrations were measured over 6 timepoints collected between 0 and 12 hours of incubation by liquid-chromatography-coupled mass spectrometry (LC–MS); parameters: dose 5 uM, timepoint 0, 1.5, 3, 6, 9, 12 hours; conditions: 5 µM
# [13] = as §1, with “the gut metagenome community of A-04 with ENA study accession number: PRJEB31790” for “Eubacterium hallii strain: DSM3353”, “7” for “6”; parameters: dose 5 uM, timepoint 0, 0.75, 1.5, 3, 6, 9, 12 hours; conditions: 5 µM
# [14] = The drug is tested on Ruminococcus gnavus strain: ATCC29149 for biotransformation under anaerobic condition. The drug concentrations were measured over 6 timepoints collected between 0 and 12 hours of incubation by liquid-chromatography-coupled mass spectrometry (LC–MS); parameters: dose 5 uM, timepoint 0, 1.5, 3, 6, 9, 12 hours; conditions: mediterraneibacter gnavus, 5 µM
# [15] = The drug is tested on Escherichia coli strain: DSM27469 for biotransformation under anaerobic condition. The drug concentrations were measured over 6 timepoints collected between 0 and 12 hours of incubation by liquid-chromatography-coupled mass spectrometry (LC–MS); parameters: dose 5 uM, timepoint 0, 1.5, 3, 6, 9, 12 hours; conditions: 5 µM
# [16] = The drug is tested on Odoribacter splanchnicus strain: DSM20712 for biotransformation under anaerobic condition. The drug concentrations were measured over 6 timepoints collected between 0 and 12 hours of incubation by liquid-chromatography-coupled mass spectrometry (LC–MS); parameters: dose 5 uM, timepoint 0, 1.5, 3, 6, 9, 12 hours; conditions: 5 µM
# [17] = The drug is tested on Lactobacillus reuteri strain: DSM20016 for biotransformation under anaerobic condition. The drug concentrations were measured over 6 timepoints collected between 0 and 12 hours of incubation by liquid-chromatography-coupled mass spectrometry (LC–MS); parameters: dose 5 uM, timepoint 0, 1.5, 3, 6, 9, 12 hours; conditions: limosilactobacillus reuteri, 5 µM
# [18] = as §2, with “the gut metagenome community of A-07 with ENA study accession number: PRJEB31790” for “Alloscardovia omnicolens strain: DSM21503”, “7” for “6”; parameters: dose 5 uM, timepoint 0, 0.75, 1.5, 3, 6, 9, 12 hours; conditions: 5 µM
# [19] = as §2, with “the gut metagenome community of A-01 with ENA study accession number: PRJEB31790” for “Alloscardovia omnicolens strain: DSM21503”, “7” for “6”; parameters: dose 5 uM, timepoint 0, 0.75, 1.5, 3, 6, 9, 12 hours; conditions: 5 µM
# [20] = The drug is tested on Lactobacillus fermentum strain: DSM20052 for biotransformation under microaerobic condition. The drug concentrations were measured over 6 timepoints collected between 0 and 12 hours of incubation by liquid-chromatography-coupled mass spectrometry (LC–MS); parameters: dose 5 uM, timepoint 0, 1.5, 3, 6, 9, 12 hours; conditions: limosilactobacillus fermentum, 5 µM
# [21] = The drug is tested on Gemella morbillorum strain: DSM20572 for biotransformation under anaerobic condition. The drug concentrations were measured over 6 timepoints collected between 0 and 12 hours of incubation by liquid-chromatography-coupled mass spectrometry (LC–MS); parameters: dose 5 uM, timepoint 0, 1.5, 3, 6, 9, 12 hours; conditions: 5 µM
# [22] = The drug is tested on Alloscardovia omnicolens strain: DSM21503 for biotransformation under anaerobic condition. The drug concentrations were measured over 6 timepoints collected between 0 and 12 hours of incubation by liquid-chromatography-coupled mass spectrometry (LC–MS); parameters: dose 5 uM, timepoint 0, 1.5, 3, 6, 9, 12 hours; conditions: 5 µM
# [23] = The drug is tested on Streptococcus salivarius strain: DSM20560 for biotransformation under microaerobic condition. The drug concentrations were measured over 6 timepoints collected between 0 and 12 hours of incubation by liquid-chromatography-coupled mass spectrometry (LC–MS); parameters: dose 5 uM, timepoint 0, 1.5, 3, 6, 9, 12 hours; conditions: 5 µM
# [24] = as §1, with “the gut metagenome community of T-01 with ENA study accession number: PRJEB31790” for “Eubacterium hallii strain: DSM3353”, “7” for “6”; parameters: dose 5 uM, timepoint 0, 0.75, 1.5, 3, 6, 9, 12 hours; conditions: 5 µM
# [25] = The drug is tested on Bacteroides xylanisolvens strain: HM 722 for biotransformation under anaerobic condition. The drug concentrations were measured over 6 timepoints collected between 0 and 12 hours of incubation by liquid-chromatography-coupled mass spectrometry (LC–MS); parameters: dose 5 uM, timepoint 0, 1.5, 3, 6, 9, 12 hours; conditions: 5 µM
# [26] = The drug is tested on Gemella haemolysans strain: DSM107751 for biotransformation under anaerobic condition. The drug concentrations were measured over 6 timepoints collected between 0 and 12 hours of incubation by liquid-chromatography-coupled mass spectrometry (LC–MS); parameters: dose 5 uM, timepoint 0, 1.5, 3, 6, 9, 12 hours; conditions: 5 µM
# [27] = The drug is tested on Akkermansia muciniphila strain: DSM22959 for biotransformation under anaerobic condition. The drug concentrations were measured over 6 timepoints collected between 0 and 12 hours of incubation by liquid-chromatography-coupled mass spectrometry (LC–MS); parameters: dose 5 uM, timepoint 0, 1.5, 3, 6, 9, 12 hours; conditions: 5 µM
# [28] = as §2, with “the gut metagenome community of A-05 with ENA study accession number: PRJEB31790” for “Alloscardovia omnicolens strain: DSM21503”, “7” for “6”; parameters: dose 5 uM, timepoint 0, 0.75, 1.5, 3, 6, 9, 12 hours; conditions: 5 µM
# [29] = The drug is tested on Clostridium ramosum strain: DSM1402 for biotransformation under anaerobic condition. The drug concentrations were measured over 6 timepoints collected between 0 and 12 hours of incubation by liquid-chromatography-coupled mass spectrometry (LC–MS); parameters: dose 5 uM, timepoint 0, 1.5, 3, 6, 9, 12 hours; conditions: thomasclavelia ramosa, 5 µM
Bacterial Biotransformation [1],Bacterial Biotransformation [2],Bacterial Biotransformation [3],Bacterial Biotransformation [4],Bacterial Biotransformation [5],Bacterial Biotransformation [6],Bacterial Biotransformation [7],Bacterial Biotransformation [8],Bacterial Biotransformation [9],Bacterial Biotransformation [10],Bacterial Biotransformation [11],Bacterial Biotransformation [12],Bacterial Biotransformation [13],Bacterial Biotransformation [14],Bacterial Biotransformation [15],Bacterial Biotransformation [16],Bacterial Biotransformation [17],Bacterial Biotransformation [18],Bacterial Biotransformation [19],Bacterial Biotransformation [20],SMILES,other results
Compound NOT metabolized,Compound NOT metabolized,Compound NOT metabolized,Compound NOT metabolized,Compound NOT metabolized,Compound metabolized,Compound NOT metabolized,Compound NOT metabolized,Compound NOT metabolized,Compound metabolized,Compound NOT metabolized,Compound NOT metabolized,Compound NOT metabolized,Compound NOT metabolized,Compound NOT metabolized,Compound NOT metabolized,Compound NOT metabolized,Compound metabolized,Compound NOT metabolized,Compound NOT metabolized,CCCC1O[C@@H]2C[C@H]3[C@@H]4CCC5=CC(=O)C=C[C@]5(C)[C@H]4[C@@H](O)C[C@]3(C)[C@]2(C(=O)CO)O1 (some centres not stated) [BUDESONIDE],Bacterial Biotransformation [21]: Compound NOT metabolized; Bacterial Biotransformation [22]: Compound NOT metabolized; Bacterial Biotransformation [23]: Compound NOT metabolized; Bacterial Biotransformation [24]: Compound metabolized; Bacterial Biotransformation [25]: Compound NOT metabolized; Bacterial Biotransformation [26]: Compound NOT metabolized; Bacterial Biotransformation [27]: Compound NOT metabolized; Bacterial Biotransformation [28]: Compound metabolized; Bacterial Biotransformation [29]: Compound NOT metabolized
Compound NOT metabolized,Compound NOT metabolized,Compound NOT metabolized,Compound NOT metabolized,Compound NOT metabolized,Compound NOT metabolized,Compound NOT metabolized,Compound metabolized,Compound NOT metabolized,Compound NOT metabolized,Compound NOT metabolized,Compound NOT metabolized,Compound NOT metabolized,Compound NOT metabolized,Compound NOT metabolized,Compound NOT metabolized,Compound NOT metabolized,Compound NOT metabolized,Compound NOT metabolized,Compound NOT metabolized,CCC(C)(C)C(=O)O[C@H]1C[C@@H](C)C=C2C=C[C@H](C)[C@H](CC[C@@H]3C[C@@H](O)CC(=O)O3)[C@H]21 [SIMVASTATIN],Bacterial Biotransformation [21]: Compound NOT metabolized; Bacterial Biotransformation [22]: Compound NOT metabolized; Bacterial Biotransformation [23]: Compound NOT metabolized; Bacterial Biotransformation [24]: Compound NOT metabolized; Bacterial Biotransformation [25]: Compound NOT metabolized; Bacterial Biotransformation [26]: Compound NOT metabolized; Bacterial Biotransformation [27]: Compound NOT metabolized; Bacterial Biotransformation [28]: Compound NOT metabolized; Bacterial Biotransformation [29]: Compound NOT metabolized
Compound metabolized,Compound NOT metabolized,Compound metabolized,Compound metabolized,Compound NOT metabolized,Compound metabolized,Compound metabolized,Compound NOT metabolized,Compound metabolized,Compound metabolized,Compound metabolized,Compound metabolized,Compound metabolized,Compound NOT metabolized,Compound NOT metabolized,Compound NOT metabolized,Compound NOT metabolized,Compound metabolized,Compound metabolized,Compound metabolized,COc1c(C)c2c(c(O)c1C/C=C(\C)CCC(=O)OCCN1CCOCC1)C(=O)OC2 [MYCOPHENOLATE MOFETIL],Bacterial Biotransformation [21]: Compound metabolized; Bacterial Biotransformation [22]: Compound metabolized; Bacterial Biotransformation [23]: Compound metabolized; Bacterial Biotransformation [24]: Compound metabolized; Bacterial Biotransformation [25]: Compound metabolized; Bacterial Biotransformation [26]: Compound metabolized; Bacterial Biotransformation [27]: Compound NOT metabolized; Bacterial Biotransformation [28]: Compound metabolized; Bacterial Biotransformation [29]: Compound NOT metabolized
